In patent US7968602B2, “4-[(E)-2-(5,6,7,8-tetrahydro-5,5,8,8-tetramethyl-2-napthalenyl)-1-propenyl]benzoic acid analogs and method of manufacture and use thereof” (Wisconsin Alumni Research Foundation, priority 2005, dated 2011):
Entries after “also recorded” stand apart in the source; their conditions may differ.

Legend:
RXRgamma = target: T1, RXRgamma (Mus musculus, UniProt P28705); assay: Nuclear RXR competition binding assay ([3H]-9-cis-RA, hydroxylapatite); set-up: species or system murine; conditions: for competition binding to RXRs: compared with 4-HPTTNPB, studies 'may be performed'
T1 construct: made in house; host or cells: insect cells infected with baculovirus expression vectors; nuclear extracts
T1 sequence (P28705 1-463): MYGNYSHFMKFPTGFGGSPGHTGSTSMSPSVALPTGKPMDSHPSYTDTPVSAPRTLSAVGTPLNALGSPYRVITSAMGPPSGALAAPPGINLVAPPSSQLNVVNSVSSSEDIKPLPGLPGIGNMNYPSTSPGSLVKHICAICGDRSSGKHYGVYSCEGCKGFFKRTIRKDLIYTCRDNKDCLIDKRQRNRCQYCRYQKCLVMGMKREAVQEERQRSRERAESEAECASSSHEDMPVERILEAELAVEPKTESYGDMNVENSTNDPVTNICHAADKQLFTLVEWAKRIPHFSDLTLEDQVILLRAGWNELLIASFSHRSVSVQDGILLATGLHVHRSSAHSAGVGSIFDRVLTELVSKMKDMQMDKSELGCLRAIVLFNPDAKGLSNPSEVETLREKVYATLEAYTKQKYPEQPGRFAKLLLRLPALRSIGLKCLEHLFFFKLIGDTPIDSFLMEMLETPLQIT
Experimental: Nuclear Retinoid Receptor (RAR/RXR) Binding. Competition of retinoids with [^3H]-all-trans-RA for binding to RARalpha, RARbeta and RARgamma and with [^3H]-9-cis-RA for binding to RXRgamma was determined using an in vitro ligand binding assay. […] Radiolabeled ligands were added to receptor-containing extracts in the absence and presence of increasing concentrations of competing ligands followed by separating ligand bound to the receptor from that free in solution using a hydroxylapatite (HAP) assay.

[1] = tested on: T2, RARalpha, RARbeta and RARgamma; assay: Nuclear RAR competition binding assay ([3H]-all-trans-RA, hydroxylapatite); set-up: species or system human RARalpha and RARgamma, murine RARbeta; conditions: for competition with [3H]-all-trans-RA for binding to the RARs: RAR types alpha, beta and gamma, stated collectively; for competition binding to RARs: compared with 4-HPTTNPB, studies 'may be performed'
T2 construct: fused on or other part: RARalpha was expressed as a fusion protein in E. coli
Experimental: Nuclear Retinoid Receptor (RAR/RXR) Binding. Competition of retinoids with [^3H]-all-trans-RA for binding to RARalpha, RARbeta and RARgamma and with [^3H]-9-cis-RA for binding to RXRgamma was determined using an in vitro ligand binding assay. (See Clagett-Dame et al., Methods for generating and characterizing retinoid receptors from E. coli and insect cell expression systems, Meth. Enzymol., 282:13-14 (1997)). Recombinant human RARalpha was expressed as a fusion protein in E. coli (see Repa J J et al., All-trans retinol is a ligand for the retinoic acid receptors, Proc Natl Acad Sci USA, 90:7293-7297 (1993)). […] Radiolabeled ligands were added to receptor-containing extracts in the absence and presence of increasing concentrations of competing ligands followed by separating ligand bound to the receptor from that free in solution using a hydroxylapatite (HAP) assay.

pregnant rats = assay: Assessment of compound teratogenicity; type: in vivo; conditions: for teratogenic activity / fetal malformations: 0.66 micomoles/kg single oral bolus at E9.25, fetuses at E21.5
Experimental: Assessment of Compound Teratogenicity. Female rats (Harlan Sprague-Dawley, Madison, Wis. approximately 200 to 250 g in weight) were maintained on normal laboratory rat chow and mated with normal rats of the same strain. Pregnant rats were given a single oral bolus dose of compound dissolved in Wesson® corn oil. Each dose was 60-100 μL. The doses were given at day 9.25. Each […] was maintained under standard laboratory conditions until euthanasia at embryonic day 21.5. The fetuses were removed. Fetuses with a heartbeat were determined to be alive. The number of live and dead fetuses were recorded. The number of resorption sites was also recorded. The live fetuses were examined for gross external malformations. All animals were maintained in accordance with protocol approved by the University of Wisconsin-Madison animal care committee.

[2] = tested on: DMBA-induced mammary tumors; assay: Inhibition of DMBA-induced mammary tumors; type: in vivo; conditions: studies 'may be performed'
MCF-7 cells [3] = assay: Cell growth inhibition assay; type: cell-based, human; conditions: for cell growth inhibition, MCF-7: compared with 4-HPTTNPB, assays 'may be performed'; for response of MCF-7 cells (live cells / cell death): single treatment, 72 hours
Experimental: (§1) Cell growth inhibition and TUNEL assays. […] The cells were plated at 50,000 cells/well in 12-well plates. The wells were dosed with varying amounts of retinoid compounds. At cell harvest, propidium iodide was added. Half of the cells were used to determine the number of live and dead cells after adding fluorescein diacetate, which yields a fluorescent product upon cleavage by metabolically active cells. The other half were fixed in 4% paraformaldehyde, dried on aminosilane coated slides and used to determine TUNEL and propidium iodide staining.
Cell culture. The human mammary carcinoma cell line, MCF-7, may be obtained from the American Type Culture Collection (Mannassas, Va.). MCF-7 cells may be maintained in DMEM (Sigma-Aldrich) medium supplemented with 4 g/L glucose, 3.7 g/L sodium bicarbonate and 10% fetal calf serum.
Assay for cell growth inhibition. Cells are plated in flasks/wells of a tissue culture dish. After 24 hours, cells are dosed with a compound of the present invention at varying concentrations, and after 72 hours, the cells are removed from flasks/plates and counted. Fluorescence (due to staining of cells with fluorescein diacetate) was used to count the number of live cells. Phase-contrast microscopy is used to count the total number of cells.

MCF-7 cells [4] = assay: TUNEL assay (DNA fragmentation); type: cell-based, human; conditions: for induction of apoptosis / DNA fragmentation: MCF-7 cells, 72 hours, 4-HPTTNPB and 4-HBTTNPB at the highest doses; for activity in DNA fragmentation study: compared with 4-HPTTNPB, studies 'may be performed'
Experimental: as §1

[5] = tested on: F9-RARE-lacZ reporter cell line; assay: F9 reporter gene assay; type: cell-based; conditions: for potency in activating the reporter system compared with atRA and TTNPB: versus atRA and TTNPB
Excerpt: Reporter gene assay. […] Data were normalized for total protein using the method set forth in Bradford M M, Anal Biochem, 72:248-254 (1976).

[6] = TTNPB: at concentrations above 10^-6 M, 4-HPTTNPB and 4-HPR: at the highest concentration

Q: What does the source list for C/C(=C\c1ccc(C(=O)Cc2ccc(O)cc2)cc1)c1ccc2c(c1)C(C)(C)CCC2(C)C [4-HBTTNPB, E-4-[2-methyl-2-(1,1,4,4-tetramethyl-1,2,3,4-tetrahydronapth-7-yl)-vinyl]-phenyl-2′-(4′-hydroxyphenyl)-1′-ethanone]?
A: competition binding to RXRs (RXRgamma): only slight binding competition; competition with [3H]-all-trans-RA for binding to the RARs [1]: competed poorly; competition binding to RARs [1]: bind only very weakly; teratogenic activity / fetal malformations (pregnant rats): devoid of any observable teratogenic activity; teratogenic potential / embryotoxicity (pregnant rats; 'the data will demonstrate'): little, if any, observable embrotoxicity; number of dead and resorbed fetuses compared with vehicle group (pregnant rats; rat, in vivo, po): did not differ; toxicity in DMBA-induced mammary tumor studies [2]: little, if any, toxicity; cell growth inhibition, MCF-7 (MCF-7 cells [3]; listed as 23): inhibits growth of MCF-7 cells in a dose-dependent manner; response of MCF-7 cells (live cells / cell death) (MCF-7 cells [3]): dose-dependent decrease; induction of apoptosis / DNA fragmentation (MCF-7 cells [4]): very active; activity in DNA fragmentation study (MCF-7 cells [4]): activity similar to 4-HPTTNPB

Q: What does the source list for C/C(=C\c1ccc(C(=O)Cc2ccc(O[C@@H]3O[C@H](CO)[C@@H](O)[C@H](O)[C@H]3O)cc2)cc1)c1ccc2c(c1)C(C)(C)CCC2(C)C [Compound 33, E-4-[2-methyl-2-(1,1,4,4-tetramethyl-1,2,3,4-tetrahydronaphth-7-yl)-vinyl]-phenyl-2′-(4′-beta-D-glucopyranosyloxyphenyl)-1′-ethanone]?
A: competition binding to RXRs (RXRgamma): no better at binding to RXRs than 4-HPTTNPB; competition binding to RARs [1]: only slightly better at binding to RARs than 4-HPTTNPB; teratogenic potential / embryotoxicity (pregnant rats; rat, in vivo): little, if any, observable embrotoxicity; toxicity in DMBA-induced mammary tumor studies [2]: little, if any, toxicity; cell growth inhibition, MCF-7 (MCF-7 cells [3]): inhibits growth of MCF-7 cells in a dose-dependent manner

Q: Which results are given for C/C(=C\c1ccc(C(=O)Nc2ccc(O)cc2)cc1)c1ccc2c(c1)C(C)(C)CCC2(C)C [4-HPTTNPB, E-4-[2-methyl-2-(1,1,4,4-tetramethyl-1,2,3,4-tetrahydronapth-7-yl)-vinyl]-benzoic acid 4-hydroxyanilide]?
A: competition with [3H]-9-cis-RA for binding to RXRgamma (RXRgamma; [6]): almost no competition; competition with [3H]-all-trans-RA for binding to the RARs [1]: competed poorly; also recorded: did not show any significant binding; teratogenic activity / fetal malformations (pregnant rats): all profoundly malformed; percentage of the fetuses at embryonic day 21.5 either dead or resorbed (pregnant rats; 0.66 micomoles/kg single oral bolus at E9.25, three pregnant rats): > 80%; potency in activating the reporter system compared with atRA and TTNPB [5]: around 100 fold less potent; response of MCF-7 cells (live cells / cell death) (MCF-7 cells [3]): dose-dependent decrease; induction of apoptosis / DNA fragmentation (MCF-7 cells [4]): very active

Q: How did the “competition with [3H]-9-cis-RA for binding to RXRgamma” value (shortened to “competition with [3H]-9-cis-RA”) (RXRgamma; [6]) turn out when CC1=C(/C=C/C(C)=C/C=C/C(C)=C/C(=O)Nc2ccc(O)cc2)C(C)(C)CCC1 [4-HPR, N-(4-hydroxyphenyl) retinamide, reference compound] was run?
A: almost no competition

Q: And the “competition with [3H]-all-trans-RA for binding to the RARs” value [1]?
A: only weak competition

Q: And the “potency of competition for RAR binding compared with TTNPB” value ([1]; versus TTNPB)?
A: 3-4 orders of magnitude less potent

Q: And the “potency in activating the reporter system compared with atRA and TTNPB” value [5]?
A: approximately 1000 fold less potent

Q: And the “response of MCF-7 cells (live cells / cell death)” value (MCF-7 cells [3])?
A: cell death

Q: And the “induction of apoptosis / DNA fragmentation” value (MCF-7 cells [4])?
A: high degree of apoptosis

Q: How did the “competition with [3H]-9-cis-RA” value (RXRgamma; [6]) turn out when C=C(c1ccc(C(=O)O)cc1)c1cc2c(cc1C)C(C)(C)CCC2(C)C [LGD1069, reference compound] was run?
A: very effective

Q: C/C(=C\c1ccc(C(=O)O)cc1)c1ccc2c(c1)C(C)(C)CCC2(C)C [TTNPB, E-4-[2-methyl-2-(1,1,4,4-tetramethyl-1,2,3,4-tetrahydronapth-7-yl)-vinyl]-benzoic acid, reference compound] was tested. Which “competition with [3H]-9-cis-RA” value (RXRgamma; [6]) did it give?
A: very weak competition

Q: And the “competition with [3H]-9-cis-RA” value (RXRgamma; at 10^-4.5 M)?
A: 44%

Q: What about the “competition with [3H]-all-trans-RA for binding to the RARs” value [1] of the same molecule?
A: very effective

Q: What about the “activity in the F9 reporter assay (beta-galactosidase)” value [5] of the same molecule?
A: highly active

Q: What about the “response of MCF-7 cells (live cells / cell death)” value (MCF-7 cells [3]) of the same molecule?
A: nearly ineffective

Q: What about the “induction of apoptosis / DNA fragmentation” value (MCF-7 cells [4]) of the same molecule?
A: ineffective

Q: What does the source list for CCCc1cc2c(cc1/C(C)=C/c1ccc(C(=O)Nc3ccc(O)cc3)cc1)C(C)(C)CCC2(C)C [Compound 12, E-4-[2-methyl-2-(6-propyl-1,1,4,4-tetramethyl-1,2,3,4-tetrahydronapth-7-yl)-vinyl]-benzoic acid 4-hydroxyanilide]?
A: competition binding to RXRs (RXRgamma): only slight binding competition; competition binding to RARs [1]: bind only very weakly; cell growth inhibition, MCF-7 (MCF-7 cells [3]): inhibits growth of MCF-7 cells in a dose-dependent manner

Q: CC1=C(/C=C/C(C)=C/C=C/C(C)=C/C(=O)O)C(C)(C)CCC1 [atRA, all-trans retinoic acid, reference compound] was tested. Which “activity in the F9 reporter assay (beta-galactosidase)” value [5] did it give?
A: highly active

Q: Which “competition binding to RXRs” value (RXRgamma) does the source give for C/C(=C\c1ccc(C(=O)Cc2ccc(OC3OC(C(=O)O)C(O)C(O)C3O)cc2)cc1)c1ccc2c(c1)C(C)(C)CCC2(C)C (stereo not shown) [Compound 25] here?
A: no better at binding to RXRs than 4-HPTTNPB

Q: What about the “competition binding to RARs” value [1] of the same molecule?
A: only slightly better at binding to RARs than 4-HPTTNPB

Q: And the “teratogenic potential / embryotoxicity” value (pregnant rats; 'the data will demonstrate')?
A: little, if any, observable embrotoxicity

Q: And the “toxicity in DMBA-induced mammary tumor studies” value [2]?
A: little, if any, toxicity

Q: And the “cell growth inhibition, MCF-7” value (MCF-7 cells [3])?
A: inhibits growth of MCF-7 cells in a dose-dependent manner; also recorded: less active than 4-HPTTNPB

Q: What about the “activity in DNA fragmentation study” value (MCF-7 cells [4]) of the same molecule?
A: less active than 4-HPTTNPB
